These molecules were tested against PRMT5 (Homo sapiens (Human), UniProt O14744) (assay: Inhibitory activity against PRMT5 enzyme by radioisotopic method). Settings: PRMT5 5 nM, [3H]-SAM 0.3 μM, polypeptide substrate GL-27 100 nM, room temperature.
Format: biochemical
Experimental: Test Example 1. Test on the inhibitory activity of the compounds of the invention against PRMT5 enzyme by radioisotopic method
Test method: A 1× enzyme reaction buffer (10 mM Tris 8.0 (Sigma, Cat. No. T2694-1L), 0.01% Tween-20 (Sigma, Cat. No. P2287-100 ML), 1 mM DTT (Sigma, Cat. No. D0632-10G)) was prepared. PRMT5 (Active Motif, Cat. No. 31921) and [3H]—SAM (PerkinElmer, Cat. No. NET155V001MC) were added to the 1×enzyme reaction buffer, to prepare a 25/15× mixed solution (PRMT5 final concentration: 5 nM, [3H]—SAM final concentration: 0.3 μM). 15 μL of this solution was transferred into a 384-well microplate (Corning 384-well Polypropylene Storage Microplates, Cat. No. 3657) with various concentrations of the compounds (DMSO final concentration 1%), and incubated at room temperature for 60 minutes. A polypeptide substrate, GL-27 (Ac-[…]-K (Biotin) (GL Biochem, Cat. No. 342095)), was added into the 1×enzyme reaction buffer to prepare a 25/10× substrate solution. Then 10 μL of the polypeptide substrate solution (final concentration of the polypeptide substrate: 100 nM) was added, a reaction was stirred at room temperature for 120 minutes, and then 5 μL 6× ice cold SAM (Sigma, Cat. No. A7007-100 MG) solution was added to stop the reaction (SAM final concentration: 0.125 mM). 25 µL of the reaction mixture was transferred into a FlashPlate (Streptavidin FlashPlate HTS PLUS, High Capacity, 384-well, Perkin Elmer, Cat. No. SMP410A001PK), and incubated at room temperature for 1 h. After washed three times with distilled water containing 0.1% Tween-20, the microplate was read on a MicroBeta reader for CPM data (Counts Per Minute). […] Then the inhibition rate Inh % (Y) corresponding to each concentration (X) was input in EXCEL, and the IC50 value (the half maximal inhibitory concentration) of each compound was calculated with the XLfit plug-in according to the built-in four-parameter fitting equation Y=Bottom+(Top-Bottom)/(1+(IC50/X)[…]).

Sequence of PRMT5 (O14744 whole entry): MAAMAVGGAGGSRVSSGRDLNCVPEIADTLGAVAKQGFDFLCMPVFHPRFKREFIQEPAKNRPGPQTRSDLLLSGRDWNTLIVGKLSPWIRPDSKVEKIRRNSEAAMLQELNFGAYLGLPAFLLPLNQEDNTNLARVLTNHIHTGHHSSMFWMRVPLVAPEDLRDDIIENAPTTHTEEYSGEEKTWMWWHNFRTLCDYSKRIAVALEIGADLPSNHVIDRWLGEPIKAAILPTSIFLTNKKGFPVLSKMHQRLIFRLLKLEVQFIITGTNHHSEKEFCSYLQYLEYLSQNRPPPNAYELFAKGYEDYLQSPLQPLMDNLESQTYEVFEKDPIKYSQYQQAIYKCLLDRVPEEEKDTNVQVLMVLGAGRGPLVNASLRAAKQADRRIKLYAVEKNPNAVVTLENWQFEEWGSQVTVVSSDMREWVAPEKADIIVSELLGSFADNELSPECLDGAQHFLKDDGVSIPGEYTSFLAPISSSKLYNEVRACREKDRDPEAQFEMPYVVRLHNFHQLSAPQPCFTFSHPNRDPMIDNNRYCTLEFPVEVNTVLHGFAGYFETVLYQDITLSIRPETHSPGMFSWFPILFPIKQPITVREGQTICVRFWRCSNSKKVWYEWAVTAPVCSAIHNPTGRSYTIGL
Sequence of PRMT5 (Q9BQA1 whole entry partner): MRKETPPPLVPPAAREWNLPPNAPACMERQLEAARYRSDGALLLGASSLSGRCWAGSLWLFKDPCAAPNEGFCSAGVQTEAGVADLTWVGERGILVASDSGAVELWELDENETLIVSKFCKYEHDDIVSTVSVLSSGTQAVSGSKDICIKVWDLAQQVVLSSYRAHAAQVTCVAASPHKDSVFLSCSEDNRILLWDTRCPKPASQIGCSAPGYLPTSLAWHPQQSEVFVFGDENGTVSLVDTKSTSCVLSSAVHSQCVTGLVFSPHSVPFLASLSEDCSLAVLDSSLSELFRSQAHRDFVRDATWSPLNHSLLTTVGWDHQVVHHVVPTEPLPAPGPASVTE

Question: O[C@H]1CN(c2cc(Nc3cccc(F)c3)ncn2)CC[C@@H]1N1CCc2ccccc2C1 (relative stereo) [Example 42, trans-1-(6-((3-fluorophenyl)amino)pyrimidin-4-yl)-4-(3,4-dihydroisoquinolin-2(1H)-yl)piperidin-3-ol] was tested. Which IC50 did it give?
Answer: < 100 nM

Question: How did the IC50 turn out when O=C(c1cc(Nc2ccccc2)ncn1)N1CC[C@H](N2CCc3ccccc3C2)[C@@H](O)C1 [Example 101] was run?
Answer: < 100 nM

Question: For CCC(CC)Oc1nc(NC2CCN(C(=O)C3CC(F)(F)C3)CC2)cc(C(=O)N2CC[C@@H](N3CCc4ccccc4C3)[C@H](O)C2)n1 [Example 156, (6-((1-(3,3-difluorocyclobutane-1-carbonyl)piperidin-4-yl)amino)-2-(pentan-3-oxy)pyrimidin-4-yl)((3R,4R)-4-(3,4-dihydroisoquinolin-2(1H)-yl)-3-hydroxy-piperidin-1-yl)ketone], which IC50 is on record?
Answer: < 100 nM

Question: With CCOc1ccccc1Nc1cc(N2CC[C@@H](N3CCc4ccccc4C3)[C@H](O)C2)ncn1 (relative stereo) [Example 90, trans-1-(6-((2-ethoxyphenyl)amino)pyrimidin-4-yl)-4-(3,4-dihydroisoquinolin-2(1H)-yl)piperidin-3-ol] as the molecule, how does the IC50 read?
Answer: < 100 nM

Question: With O=C(c1cc(N2CC[C@H](N3CCc4ccccc4C3)[C@@H](O)C2)ncn1)N1CC[C@H](N2CCc3ccccc3C2)[C@@H](O)C1 [Example 97] as the molecule, how does the IC50 read?
Answer: < 100 nM

Question: With O[C@H]1CN(c2cc(Nc3ccccc3-c3ccccc3)ncn2)CC[C@@H]1N1CCc2ccccc2C1 (relative stereo) [Example 66, trans-1-(6-([1,1′-biphenyl]-2-ylamino)pyrimidin-4-yl)-4-(3,4-dihydro-isoquinolin-2(1H)-yl)piperidin-3-ol] as the molecule, how does the IC50 read?
Answer: < 100 nM

Question: With O[C@H]1CN(c2cc(Nc3ccc(N4CCOCC4)cc3)ncn2)CC[C@@H]1N1CCc2ccccc2C1 (relative stereo) [Example 49, trans-4-(3,4-dihydroisoquinolin-2(1H)-yl)-1-(6-((4-morpholinylphenyl)amino)pyrimidin-4-yl)piperidin-3-ol] as the molecule, how does the IC50 read?
Answer: < 100 nM

Question: Which IC50 does the source give for CC(=O)N1CCC(Nc2cccc(C(=O)N3CC[C@H](N4CCc5ccccc5C4)[C@@H](O)C3)c2)CC1 (relative stereo) [Example 28, trans-1-(4-((3-(4-(3,4-dihydroisoquinolin-2(1H)-yl)-3-hydroxypiperidine-1-carbonyl)phenyl)amino)piperidin-1-yl)ethan-1-one] here?
Answer: < 100 nM

Question: How did the IC50 turn out when COC(=O)N1CCC(Nc2cc(C(=O)N3CC[C@H](N4CCc5ccccc5C4)[C@@H](O)C3)ncn2)CC1 (relative stereo) [Example 123, methyl trans-4-((6-(4-(3,4-dihydroisoquinolin-2(1H)-yl)-3-hydroxypiperidine-1-carbonyl)pyrimidin-4-yl)amino)piperidine-1-carboxylate] was run?
Answer: < 100 nM

Question: How did the IC50 turn out when CC(=O)N1CCC(Nc2cc(C(=O)N3CC[C@H](N4CCc5ccccc5C4)[C@@H](O)C3)c(C(F)(F)F)cn2)CC1 (relative stereo) [Example 102, trans-1-(4-((4-(4-(3,4-dihydroisoquinolin-2(1H)-yl)-3-hydroxypiperidine-1-carbonyl)-5-(trifluoromethyl)pyridin-2-yl)amino)piperidin-1-yl)ethan-1-one] was run?
Answer: < 100 nM

Question: How did the IC50 turn out when CC(=O)N1CCC(Nc2cc(C(=O)N3CC[C@H](N4CCc5ccccc5C4)[C@@H](O)C3)nc(Cl)n2)CC1 (relative stereo) [Example 117, trans-1-(4-((2-chloro-6-(4-(3,4-dihydroisoquinolin-2(1H)-yl)-3-hydroxypiperidine-1-carbonyl)pyrimidin-4-yl)amino)piperidin-1-yl)ethan-1-one] was run?
Answer: < 100 nM

Question: For O=C(c1cc(NC2CCN(C(=O)C3CC3)CC2)ncn1)N1CC[C@H](N2CCc3ccccc3C2)[C@@H](O)C1 (relative stereo) [Example 116, trans-(6-((1-(cyclopropanecarbonyl)piperidin-4-yl)amino)pyrimidin-4-yl)(4-(3,4-dihydroisoquinolin-2(1H)-yl)-3-hydroxypiperidin-1-yl)ketone], which IC50 is on record?
Answer: < 100 nM

Question: With COc1ccc(Nc2cc(N3CC[C@H](N4CCc5ccccc5C4)[C@@H](O)C3)ncn2)cc1 (relative stereo) [Example 55, trans-4-(3,4-dihydroisoquinolin-2(1H)-yl)-1-(6-((4-methoxyphenyl)amino)pyrimidin-4-yl)piperidin-3-ol] as the molecule, how does the IC50 read?
Answer: < 100 nM

Question: For O=C(c1cc(NC2CCOCC2)ncn1)N1CC[C@H](N2CCc3ccccc3C2)[C@@H](O)C1 [Example 109], which IC50 is on record?
Answer: < 100 nM

Question: For O=C(c1cc(NC2CCN(CC(F)(F)F)CC2)ncn1)N1CC[C@H](O)[C@@H](N2CCc3ccccc3C2)CC1 [Example 127], which IC50 is on record?
Answer: < 100 nM

Question: CC(=O)N1CCC(Nc2cc(C(=O)N3CC[C@@H](N4CCc5ccccc5C4)[C@H](O)C3)nc(OC(F)(F)F)n2)CC1 [Example 151, 1-(4-((6-((3R,4R)-4-(3,4-dihydroisoquinolin-2(1H)-yl)-3-hydroxypiperidine-1-carbonyl)-2-(trifluoromethoxy)pyrimidin-4-yl)amino)piperidin-1-yl)ethan-1-one] was tested. Which IC50 did it give?
Answer: < 100 nM

Question: With COCC(=O)N1CCC(Nc2cc(C(=O)N3CC[C@H](N4CCc5ccccc5C4)[C@@H](O)C3)ncn2)CC1 (relative stereo) [Example 113, 1-(4-((6-(trans-4-(3,4-dihydroisoquinolin-2(1H)-yl)-3-hydroxypiperidine-1-carbonyl)pyrimidin-4-yl)amino)piperidin-1-yl)-2-methoxyethan-1-one] as the molecule, how does the IC50 read?
Answer: < 100 nM

Question: Which IC50 does the source give for CC(=O)N1CCC(Nc2cc(C(=O)N3CC[C@@H](N4CCc5ccccc5C4)[C@H](O)C3)nc(-c3ccc(C)s3)n2)CC1 [Example 153, 1-(4-((6-((3R,4R)-4-(3,4-dihydroisoquinolin-2(1H)-yl)-3-hydroxypiperidine-1-carbonyl)-2-(5-methylthiophen-2-yl)pyrimidin-4-yl)amino)piperidin-1-yl)ethan-1-one] here?
Answer: < 100 nM

Question: How did the IC50 turn out when O[C@H]1CN(c2cc(Nc3ccccc3F)ncn2)CC[C@@H]1N1CCc2ccccc2C1 (relative stereo) [Example 53, trans-4-(3,4-dihydroisoquinolin-2(1H)-yl)-1-(6-((2-fluorophenyl)amino)pyrimidin-4-yl)piperidin-3-ol] was run?
Answer: < 100 nM

Question: For COc1nc(NC2CCN(C(C)=O)CC2)cc(C(=O)N2CC[C@H](N3CCc4ccccc4C3)[C@@H](O)C2)n1 (relative stereo) [Example 120, 1-(4-((6-(trans-4-(3,4-dihydroisoquinolin-2(1H)-yl)-3-hydroxypiperidine-1-carbonyl)-2-methoxypyrimidin-4-yl)amino)piperidin-1-yl)ethan-1-one], which IC50 is on record?
Answer: < 100 nM

Question: O[C@@H]1CN(c2cc(Nc3cccc(-c4ccccc4)c3)ncn2)CC[C@H]1N1CCc2ccccc2C1 (relative stereo) [Example 74, trans-1-(6-([1,1′-biphenyl]-3-ylamino)pyrimidin-4-yl)-4-(3,4-dihydroisoquinolin-2(1H)-yl)piperidin-3-ol] was tested. Which IC50 did it give?
Answer: < 100 nM

Question: CC(=O)N1CCC(CNc2cc(C(=O)N3CC[C@H](N4CCc5ccccc5C4)[C@@H](O)C3)ncn2)CC1 [Example 103] was tested. Which IC50 did it give?
Answer: < 100 nM

Question: Which IC50 does the source give for CC(=O)N1CCC(Nc2cc(C(=O)N3CC[C@@H](N4CCc5ccccc5C4)[C@H](O)C3)nc(OCC(C)C)n2)CC1 [Example 140, 1-(4-((6-((3R,4R)-4-(3,4-dihydro-4,4-dideuterium-isoquinolin-2(1H)-yl)-3-hydroxypiperidine-1-carbonyl)-2-isobutoxypyrimidin-4-yl)amino)piperidin-1-yl)ethan-1-one] here?
Answer: < 100 nM

Question: With O[C@H]1CN(c2cc(Nc3ccccc3C(F)(F)F)ncn2)CC[C@@H]1N1CCc2ccccc2C1 (relative stereo) [Example 58, trans-4-(3,4-dihydroisoquinolin-2(1H)-yl)-1-(6-((2-trifluoromethylphenyl)amino)pyrimidin-4-yl)piperidin-3-ol] as the molecule, how does the IC50 read?
Answer: < 100 nM

Question: Which IC50 does the source give for O[C@H]1CN(c2cc(Nc3ccc(F)c(F)c3)ncn2)CC[C@@H]1N1CCc2ccccc2C1 (relative stereo) [Example 78, trans-1-(6-((3,4-difluorophenyl)amino)pyrimidin-4-yl)-4-(3,4-dihydroisoquinolin-2(1H)-yl)piperidin-3-ol] here?
Answer: < 100 nM

Question: For Cc1ccccc1Nc1cc(N2CC[C@H](N3CCc4ccccc4C3)[C@@H](O)C2)ncn1 (relative stereo) [Example 46, trans-1-(6-((2-methylphenyl)amino)pyrimidin-4-yl)-4-(3,4-dihydroisoquinolin-2(1H)-yl)piperidin-3-ol], which IC50 is on record?
Answer: < 100 nM

Question: CC(=O)N1CCC(Nc2cc(C(=O)N3CC[C@H](N4CCc5ccccc5C4)[C@@H](O)C3)nc(N3CCOCC3)n2)CC1 (relative stereo) [Example 144, 1-(4-((6-(trans-4-(3,4-dihydroisoquinolin-2(1H)-yl)-3-hydroxypiperidine-1-carbonyl)-2-morpholinopyrimidin-4-yl)amino)piperidin-1-yl)ethan-1-one] was tested. Which IC50 did it give?
Answer: < 100 nM
